Measurements reported in US4293483A, “Derivatives of A-30912A nucleus” (priority 1980, dated 1981).
Read-outs that look alike come from different tables or passages of the source. Numbered stars: 1 amine (or outer) side, 2 acyl side, 3 side chain; on linkers, the order of the positions; unused ones are H or OH. Bridge positions count the residues as written; N and C are the ends. Square brackets hold non-standard residues; d marks the D form. Peptide text beside a SMILES is read from it. * marks the point of attachment. Orn(4R-OH,5R-OH) = O=C([C@H](C[C@@H](O)[C@@H](O)N[*:3])N[*:1])[*:2]; hTyr(3S-OH,4S-OH) = N[C@H](C(=O)O)[C@H](O)[C@@H](O)c1ccc(O)cc1; Pro(3S-OH,4S-Me) = C[C@H]1CN[C@H](C(=O)O)[C@H]1O; 4Abz(2-Cl) = O=C(c1ccc(N[*:1])cc1Cl)[*:2]; X5 = O=C(c1cc(Cl)cc(N[*:1])c1Cl)[*:2]; X9 = COc1ccc(C(=O)[*:2])cc1N[*:1]; Hyp = O=C(O)[C@@H]1C[C@@H](O)CN1; Lauroyl = CCCCCCCCCCCC(=O)*; Decanoyl = CCCCCCCCCC(=O)*; 4Abz = Nc1ccc(C(=O)O)cc1; Heptanoyl = CCCCCCC(=O)*; Octanoyl = CCCCCCCC(=O)*; Aun = NCCCCCCCCCCC(=O)O

Columns and labels:
[1] = test system: Saccharomyces pastorianus X-52; test: Agar plate disc diffusion test, zone of inhibition; assay type: cell-based; details: Saccharomyces pastorianus, X52, 48 h, Saccharomyces pastorianus X-52; 1 mg/ml suspension in methanol, 7 mm disc; 24-48 hours at 25-37° C.; read-out: Size of Zone of Inhibition
Protocol: (§1) ^(a) Compounds were tested as suspension in methanol.
(§2) were tested at a concentration of 1 mg/ml by a dipping 7mm disc into the
(§3) suspension and placing it on the agar surface. Incubation: 24-48 hours at

Neurospora Crassa 846 = test: Agar plate disc diffusion test, zone of inhibition; assay type: cell-based; details: Neurospora crassa, 7 mm disc
Protocol: as §1, §2, §3

[2] = test system: Trichophyton mentagrophytes; test: Agar plate disc diffusion test, zone of inhibition; assay type: cell-based; details: 7 mm disc
Protocol: as §1, §2, §3

Candida albicans A-26 [3] = test: Agar plate disc diffusion test, zone of inhibition; assay type: cell-based; details: 7 mm disc; for Size of Zone of Inhibition: 1 mg/ml suspension in methanol, 24-48 hours at 25-37° C., no regrowth mark
Protocol: as §1, §2, §3

Candida albicans A-26 [4] = test: Therapeutic activity against Candida albicans A-26 infection in mice; assay type: in vivo; details: A26, sc
Protocol: The results of in vivo tests to evaluate the effectiveness of the compound of Examples 61-81, 86 and 88 against an infection caused by Candida albicans A-26 in mice are given in Table 7, where activity is measured by the ED50 value (the dose in mg/kg. required to cure 50% of the test animals). Where an ED50 value was not obtained, activity is indicated by the lowest dose at which a significant anti-fungal effect is observed. In this test, groups of male albino mice (specific pathogen free), weighing 18 to 20 grams, are infected intravenously with Candida albicans A-26. The animals are X-irradiated 24 hours prior to infection at about 50 roentgens per minute for 8 minutes (400 total dose) to reduce immune responses to the infecting organism. At 0, 4, and 24 hours post infection each group of mice is given graded doses subcutaneously of the test compound as a suspension in 33% polyethylene glycol-water. The day of death for each animal is recorded.
*Dosage Schedule: 40, 20, 15, and 10 mg/kg. Dosages given 0, 4, and 24
hours post injection as suspension of test compound in 30% PEGH2 O.
Number of mice receiving test compounds at each dosage level: 6 mice per
group. Number of mice in control (untreated) group: 10 mice per group.
**As measured by increase in survival time of treated animals versus
control, calculated by method of Reed V. Mueuch, American J. Hygiene, 493

[5] = test system: Trychophyton mentagrophytes #6; test: Agar plate disc diffusion test, MIC per disc; assay type: cell-based; details: 0.01M sodium borate, pH 7.5, 24 hours at 30° C.
Protocol: (§4) In Table 5, activity is measured by the minimal inhibitory concentration (MIC) of the substance (μg/disc) required to inhibit growth of the test organism.
(§5) *Compounds were suspended in 0.01M sodium borate solution, pH 7.5.
(§6) compounds were tested at 20 μg/disc at top level and at twofold
(§7) dilutions until end points were reached.

[6] = mouse, in vivo, 416 mg/kg, 240 min
Protocol: In this test, mice are gavaged with a dose of 416 mg/kg of the test compound suspended in 33% PEG 400-water. At time intervals, blood samples are taken from the orbital sinus and are assayed for antibiotic activity as follows: A 7 mm. disc containing 20 μl of whole blood is placed on agar seeded with Aspergillus montevidensis A35137. After 40 hours incubation at 30° C. zones of inhibition from the blood samples are compared to a standard obtained from the test compound, and the amount of compound in the blood sample is calculated.

Candida albicans A-26 [7] = test: Agar plate disc diffusion test, MIC per disc; assay type: cell-based; details: 0.01M sodium borate, pH 7.5, 24 hours at 30° C.
Protocol: as §4, §5, §6, §7

[8] = CRASSA846, Neurospora Crassa 846, 1 mg/ml, * measurable zone of inhibition with regrowth of organism around disc, read-out: Size of Zone of Inhibition (*)
[9] = 1 mg/ml, * measurable zone of inhibition with regrowth of organism around disc, read-out: Size of Zone of Inhibition (*)
[10] = subcutaneous at 0, 4 and 24 hours post infection, dose to cure 50% of test animals, by increase in survival time, read-out: ED50
[11] = subcutaneous at 0, 4 and 24 hours post infection, lowest dose with significant anti-fungal effect, read-out: Lowest Active Dose
[12] = read-out: Lowest Active Dose, subcutaneous at 0, 4 and 24 hours post infection, lowest dose with significant anti-fungal effect

| Blood Levels [6] [ng/mL] | Compound | zone of inhibition at 1000 µg/mL [1] [mm] | zone of inhibition at 1000 µg/mL (Neurospora Crassa 846; [8]) [mm] | zone of inhibition at 1000 µg/mL [2, 9] [mm] | Size of Zone of Inhibition (Candida albicans A-26 [3]) [mm] | ED50 (Candida albicans A-26 [4]; [10]) [mg/kg] | minimal effective dose (Candida albicans A-26 [4]; [11]) [mg/kg] | MIC [5] [μg/disc] | zone of inhibition at 1000 µg/mL (Neurospora Crassa 846; CRASSA846, 48 h, Neurospora Crassa 846, 1 mg/ml suspension in methanol, 24-48 hours at 25-37° C., no regrowth mark, read-out: Size of Zone of Inhibition) [mm] | zone of inhibition at 1000 µg/mL ([2]; 48 h, 1 mg/ml suspension in methanol, 24-48 hours at 25-37° C., no regrowth mark, read-out: Size of Zone of Inhibition) [mm] | Size of Zone of Inhibition (*) (Candida albicans A-26 [3]; 1 mg/ml, * measurable zone of inhibition with regrowth of organism around disc) [mm] | ED50 (Candida albicans A-26 [4]) [mg/kg] | minimal effective dose (Candida albicans A-26 [4]; [12]) [mg/kg] | MIC (Candida albicans A-26 [7]) [μg/disc] |
| --- | --- | --- | --- | --- | --- | --- | --- | --- | --- | --- | --- | --- | --- | --- |
| – | CCCCCCCCCCCC(=O)Nc1cc(C(=O)N[C@H]2C[C@@H](O)[C@@H](O)NC(=O)[C@@H]3[C@@H](O)[C@@H](C)CN3C(=O)[C@H]([C@@H](C)O)NC(=O)[C@H]([C@H](O)[C@@H](O)c3ccc(O)cc3)NC(=O)[C@@H]3C[C@@H](O)CN3C(=O)[C@H]([C@@H](C)O)NC2=O)ccc1OC [Example 71] (Lauroyl-[X9][Orn(4R-OH,5R-OH)]T[Hyp][hTyr(3S-OH,4S-OH)]T[Pro(3S-OH,4S-Me)]; lactam 2-C) | 10 | 32 | 50 | 20 | > 40 | > 40 | – | – | – | – | – | – | – |
| 0 | CCCCCCC(=O)NCCCCCCCCCCC(=O)N[C@H]1C[C@@H](O)[C@@H](O)NC(=O)[C@@H]2[C@@H](O)[C@@H](C)CN2C(=O)[C@H]([C@@H](C)O)NC(=O)[C@H]([C@H](O)[C@@H](O)c2ccc(O)cc2)NC(=O)[C@@H]2C[C@@H](O)CN2C(=O)[C@H]([C@@H](C)O)NC1=O [Example 76] ({Heptanoyl-Aun}-[Orn(4R-OH,5R-OH)]T[Hyp][hTyr(3S-OH,4S-OH)]T[Pro(3S-OH,4S-Me)]; lactam 1-C) | – | 20 | 35 | 10 | > 40 | > 40 | 0.625 | – | – | – | – | – | – |
| – | CCCCCCC(=O)Nc1ccc(C(=O)N[C@H]2C[C@@H](O)[C@@H](O)NC(=O)[C@@H]3[C@@H](O)[C@@H](C)CN3C(=O)[C@H]([C@@H](C)O)NC(=O)[C@H]([C@H](O)[C@@H](O)c3ccc(O)cc3)NC(=O)[C@@H]3C[C@@H](O)CN3C(=O)[C@H]([C@@H](C)O)NC2=O)cc1 [Example 78] ({Heptanoyl-4Abz}-[Orn(4R-OH,5R-OH)]T[Hyp][hTyr(3S-OH,4S-OH)]T[Pro(3S-OH,4S-Me)]; lactam 1-C) | 20 | – | – | – | – | – | 1.25 | 25 | 14 | 45 | > 40 | > 40 | – |
| – | CCCCCCCCCC(=O)Nc1ccc(C(=O)N[C@H]2C[C@@H](O)[C@@H](O)NC(=O)[C@@H]3[C@@H](O)[C@@H](C)CN3C(=O)[C@H]([C@@H](C)O)NC(=O)[C@H]([C@H](O)[C@@H](O)c3ccc(O)cc3)NC(=O)[C@@H]3C[C@@H](O)CN3C(=O)[C@H]([C@@H](C)O)NC2=O)cc1 [Example 79] ({Decanoyl-4Abz}-[Orn(4R-OH,5R-OH)]T[Hyp][hTyr(3S-OH,4S-OH)]T[Pro(3S-OH,4S-Me)]; lactam 1-C) | 17 | 30 | – | 24 | – | – | – | – | – | – | 26 | 5 | 0.625 |
| – | CCCCCCCC(=O)Nc1ccc(C(=O)N[C@H]2C[C@@H](O)[C@@H](O)NC(=O)[C@@H]3[C@@H](O)[C@@H](C)CN3C(=O)[C@H]([C@@H](C)O)NC(=O)[C@H]([C@H](O)[C@@H](O)c3ccc(O)cc3)NC(=O)[C@@H]3C[C@@H](O)CN3C(=O)[C@H]([C@@H](C)O)NC2=O)c(Cl)c1 [Example 86] (Octanoyl-[4Abz(2-Cl)][Orn(4R-OH,5R-OH)]T[Hyp][hTyr(3S-OH,4S-OH)]T[Pro(3S-OH,4S-Me)]; lactam 2-C) | – | – | – | – | 29 | 10 | – | – | – | – | – | – | – |
| – | CCCCCCCC(=O)Nc1cc(Cl)cc(C(=O)N[C@H]2C[C@@H](O)[C@@H](O)NC(=O)[C@@H]3[C@@H](O)[C@@H](C)CN3C(=O)[C@H]([C@@H](C)O)NC(=O)[C@H]([C@H](O)[C@@H](O)c3ccc(O)cc3)NC(=O)[C@@H]3C[C@@H](O)CN3C(=O)[C@H]([C@@H](C)O)NC2=O)c1Cl [Example 88] (Octanoyl-[X5][Orn(4R-OH,5R-OH)]T[Hyp][hTyr(3S-OH,4S-OH)]T[Pro(3S-OH,4S-Me)]; lactam 2-C) | – | – | – | – | – | – | – | – | – | – | > 40 | 20 | – |
